Laboratory results published in US10874637B2, “Methods and pharmaceutical compositions for the treatment of neurodegeneration with brain iron accumulation” (INSERM (Institut National de la Santé et de la Recherche …, priority 2016, dated 2020).
Entries after “also recorded” stand apart in the source; their conditions may differ.

Legend:
TfR1 = TfR1 palmitoylation assay in cultured skin fibroblasts (fatty acyl exchange chemistry); assay type: cell-based, human; settings: control and NBIA fibroblasts, 25 μM artesunate for 48 h
Protocol: Skin fibroblasts were isolated from patients 1-2 and from four NBIA patients carrying biallelic PANK2, PLA2G6, C19ORF12 and FA2H mutations (Supplementary Table 2). Fibroblasts were grown in DMEM (Life technologies) medium supplemented with 10% fetal beef serum (FBS), 2 mM L-glutamine, 2.5 mM pyruvate, 100 μg/ml streptomycin, 100 U/ml penicillin at 37° C. For treatment with ferric ammonium citrate (FAC), 90% confluent cells were incubated for 72 h with or without 100 μM FAC in serum-free DMEM (i.e. Tf free). HeLa cells were grown in the same medium. TfR1 palmitoylation in cultured skin fibroblasts was modified from^15. Briefly, cells were lysed on ice in a DTT-free cell lysis buffer and endogenous TfR1 was immunoprecipitated with mouse anti-TfR1 antibody (Zymed) with protein G magnetic beads (Biorad). After washing with PBS, beads were incubated overnight with 50 mM N-ethylmaleimide (NEM) at 4° C., washed 3 times with PBS and then incubated with 1 M hydroxylamine (HA) at room temperature for 2 hours. After three washes, the beads were incubated with 50 mM HPDP-Biotin (Thermo) in dark for 2 hours. Biotin-labeled TfR1 level was determined by immunoblotting in non-reducing conditions using a goat anti-biotin antibody (Thermo) while immunoblotting with rabbit anti-TfR1 antibody (Abcam) was used as loading control.

liver and ovarian cancer = settings: via induction of TfR1 palmitoylation and reduction of its cell-surface levels; cited from earlier work
ferritin (FTH) = test: Western blot of ferritin (FTH) steady state levels in fibroblasts; assay type: cell-based, human; settings: control and NBIA fibroblasts, artesunate treatment (25 μM, 48 h)
Protocol: Skin fibroblasts were isolated from patients 1-2 and from four NBIA patients carrying biallelic PANK2, PLA2G6, C19ORF12 and FA2H mutations (Supplementary Table 2). Fibroblasts were grown in DMEM (Life technologies) medium supplemented with 10% fetal beef serum (FBS), 2 mM L-glutamine, 2.5 mM pyruvate, 100 μg/ml streptomycin, 100 U/ml penicillin at 37° C. For treatment with ferric ammonium citrate (FAC), 90% confluent cells were incubated for 72 h with or without 100 μM FAC in serum-free DMEM (i.e. Tf free). HeLa cells were grown in the same medium. Cultured skin fibroblasts or HeLa cells were harvested on ice by scraping in reducing or non-reducing cell lysis buffer. SDS-PAGE was performed on whole-cell protein extracts. Immunodetections were performed in PBS with 5% milk, 0.05 Tween20 (SIGMA) using the following antibodies: rabbit anti-CRAT (HPA022815, Sigma), rabbit anti-ACOT8 (SAB4500009 SIGMA), mouse anti-REPS1 (ab69221), mouse anti-SOD1 (ab86454), mouse anti-TfR1 (Zymed 136890), rabbit anti-ferritin (ab75973), rabbit anti-IRP1 (ab126595), rabbit anti-IRP2 (ab80339), mouse anti-GRIM19 (ab110240), rabbit anti-catalase (ab16731), rabbit anti-FBXLS (ab140175), rabbit anti-LC3B (ab51520) and mouse anti-actin antibodies (ab8226). […]

iron amount = settings: treatment increasing TfR1 palmitoylation; cited from earlier work

Row | Compound | TfR1 palmitoylation (TfR1) | liver and ovarian cancer growth (liver and ovarian cancer) | ferritin (FTH) steady state levels (indicator of iron content) (ferritin (FTH)) | iron amount (iron amount)
1 | C[C@H]1[C@H](OC(=O)CCC(=O)O)O[C@@H]2O[C@@]3(C)CC[C@H]4[C@H](C)CC[C@@H]1[C@@]24OO3 [artesunate, (3R,5aS,6R,8aS,9R,10S,12R,12aR)-Decahydro-3,6,9-trimethyl-3,12-epoxy-12H-pyrano [4,3-j]-1,2-benzodioxepin-10-ol, hydrogen succinate] | enhanced TfR1 palmitoylation; also recorded: improved TfR1 palmitoylation | inhibit liver and ovarian cancer growth | decreased ferritin steady state level | 
2 | dihydroartesunate |  |  |  | reduces iron amount
